# Publication PMC10574767, “Extractives from Artemisia afra with Anti-Bacterial and Anti-Fungal Properties” (Plants, 2023)
# Read-outs that look alike come from different tables or passages of the source.
# What was measured:
# [1] = test system: intra-erythrocytic and gametocyte asexual P. falciparum parasites; design: method as in PMID 30849984; conditions: intra-erythrocytic and gametocyte stages; cited from earlier work
# [2] = test system: COX-1; design: method as in doi:10.3329/bjp.v8i2.14167; conditions: cited from earlier work
# [3] = test system: COX-2; design: method as in doi:10.3329/bjp.v8i2.14167; conditions: cited from earlier work
# [4] = test system: Candida albicans ATCC 10231; test: Serial dilution microplate MIC (fungi); assay type: cell-based; conditions: for MIC: Candida albicans; for Selectivity index C. albicans: in brackets, Vero LC50 vs MIC
# Description: (§1) The MIC value of the plant extracts and isolated compounds against one fungal and five bacterial strains (Salmonella Typhimurium ATCC 39183, Escherichia coli ATCC 25922, Pseudomonas aeruginosa ATCC 27853, Staphylococcus aureus ATCC 29213, Enterococcus faecalis ATCC 29212, and fungi culture, Candida albicans ATCC 10231) was assessed in triplicate using the serial dilution microplate method; acetone and DMSO were used as solvents. Bacterial cultures were grown in Mueller Hinton broth (Sigma Aldrich, St. Louis, MO, USA) overnight and adjusted to McFarland standard 1 (1 × 10^8 CFU/mL). Then, 100 µL of samples were transferred into the first well of a sterile 96-well microtiter plate, which contained 100 µL of water and a 1:1 serial dilution with sterilized distilled water was carried out. In each well, 100 µL of appropriately adjusted fungal or bacterial cultures were added, and the bacteria were subjected to final concentrations of 250–3.9 μg/mL for pure compounds and 2.5–0.02 mg/mL for crude extracts. Amphotericin-B and Gentamicin (Virbac, Carros, France) served as positive controls for fungi and bacteria, respectively. For sterility, water served as control, while acetone served as a negative control. The microplates were then incubated for 24 h at 37 °C. Following incubation, 40 µL of 0.2 mg/mL p-iodonitrotetrazolium violet (INT, Sigma Aldrich) dissolved in water (hot) was added to the wells before being incubated at 37 °C for another 2 h. In the case of fungi, the INT was added before incubation. The MIC was measured visually as the lowest concentration of the compounds/extracts that inhibited proliferation.
# [5] = test system: Pseudomonas aeruginosa ATCC 27853; test: Serial dilution microplate MIC; assay type: cell-based; conditions: for MIC: Pseudomonas aeruginosa; for Selectivity index P. aeruginosa: in brackets, Vero LC50 vs MIC
# Description: as §1
# [6] = test system: Escherichia coli ATCC 25922; test: Serial dilution microplate MIC; assay type: cell-based; conditions: for MIC: Escherichia coli; for Selectivity index E. coli: in brackets, Vero LC50 vs MIC
# Description: as §1
# [7] = test system: Enterococcus faecalis ATCC 29212; test: Serial dilution microplate MIC; assay type: cell-based; conditions: for MIC: Enterococcus faecalis; for Selectivity index E. faecalis: in brackets, Vero LC50 vs MIC
# Description: as §1
# [8] = test system: Staphylococcus aureus ATCC 29213; test: Serial dilution microplate MIC; assay type: cell-based; conditions: for MIC: Staphylococcus aureus; for Selectivity index S. aureus: in brackets, Vero LC50 vs MIC
# Description: as §1
# [9] = test system: Salmonella Typhimurium ATCC 39183; test: Serial dilution microplate MIC; assay type: cell-based; conditions: for MIC: Salmonella enterica, read-out: Minimum inhibitory concentration (MIC) S. Typhimurium; for Selectivity index S. Typhimurium: in brackets, Vero LC50 vs MIC
# Description: as §1
# [10] = in vitro
# Description: Cytotoxicity of compounds and extracts was tested against mammalian cells using the MTT assay. MCF-7 cancer cells were grown in a 5% CO2 incubator in Dulbecco’s Modified Eagle’s Medium (DMEM, Highveld Biological, Johannesburg, South Africa) supplemented with 10% fetal calf serum (Adcock-Ingram, Johannesburg, South Africa) and 1% penicillin-streptomycin (10,000 U/mL and 10 mg/mL streptomycin, Sigma Aldrich). In a 5% CO2 incubator, Vero cells were grown in a minimal essential medium (MEM, Highveld Biological, South Africa) supplemented with 5% fetal calf serum (Adcock-Ingram) and 0.1% gentamicin (Virbac). Cell suspensions were obtained from 70–80% confluent monolayer cultures and were plated in 96-well cell culture plates at a density of 1 × 10^4. Plates were incubated in a 5% CO2 incubator for 24 h at 37 °C. The cells were exposed to the extracts or compounds dissolved in the media at different concentrations for 48 h. Positive and negative controls were doxorubicin (Pfizer, New York, NYC, USA) and acetone or DMSO, respectively. After that, the wells were rinsed with phosphate-buffered saline (PBS, Sigma) and 200 µL of fresh medium was poured into the wells. Thirty microlitres (5 mg/mL) of MTT (Sigma) dissolved in PBS was added to each well, and the plates were incubated at 37 °C for 4 h. The medium from the wells was removed, rinsed, and 50 µL of 100% DMSO was added to the wells. At a wavelength of 570 nm, absorbance was measured using a microplate reader (BioTek Synergy, Beijing, China). Each sample concentration was tested in quadruplicate in two repeats (n = 8), and the concentration causing 50% inhibition of cell viability (LC50) was calculated. Selectivity index (SI) values for the extracts/compounds were obtained by dividing cytotoxicity LC50 values of normal (Vero) cells by those of the cancer cells.
# [11] = test system: HEK295; design: method as in PMID 27357542; conditions: cited from earlier work
# [12] = test system: Plasmodium falciparum; design: method as in PMID 32664596; conditions: cited from earlier work
# [13] = test system: MCF-7 tumor cells; design: method as in PMID 27357542; conditions: 1 µg/mL; cited from earlier work
# [14] = test system: Caco-2 tumor cells; design: method as in PMID 27357542; conditions: 5 μg/mL; cited from earlier work
# [15] = test system: Botrytis cinerea and Sclerotinia sclerotiorum; design: method as in PMID 37570772; conditions: cited from earlier work
# [16] = test system: Leishmania braziliensis amastigotes; design: method as in PMID 32664596; conditions: cited from earlier work
# [17] = test system: E. coli; design: method as in PMID 23480526; conditions: cited from earlier work
# [18] = test system: L. monocytogenes; design: method as in PMID 23480526; conditions: cited from earlier work
# [19] = test system: S. aureus; design: method as in PMID 23480526; conditions: cited from earlier work
# [20] = test system: one fungal and five bacterial strains; test: Serial dilution microplate MIC, whole panel; assay type: cell-based; conditions: isolated compounds, highest concentration 250 µg/mL
# Description: as §1
# [21] = test system: P. aeruginosa; design: method as in PMID 23480526; conditions: cited from earlier work
# [22] = design: method as in PMID 22693528; conditions: cited from earlier work
# [23] = ATCC10231, isolated compounds, Table 2, read-out: Minimum inhibitory concentration (MIC) C. albicans
# [24] = ATCC27853, isolated compounds, Table 2, read-out: Minimum inhibitory concentration (MIC) P. aeruginosa
# [25] = ATCC25922, isolated compounds, Table 2, read-out: Minimum inhibitory concentration (MIC) E. coli
# [26] = ATCC29212, isolated compounds, Table 2, read-out: Minimum inhibitory concentration (MIC) E. faecalis
# [27] = ATCC29213, isolated compounds, Table 2, read-out: Minimum inhibitory concentration (MIC) S. aureus
smiles,measurement,setting,value
"C=C1C(=O)O[C@H]2C1[C@@H](OC(C)=O)CC(=C)[C@]1(O)C=C[C@@](C)(O)[C@H]21 (stereo partly drawn) [1α, 4α-dihydroxybishopsolicepolide]",IC50,[1],~10 µM
"CC(=O)O[C@H]1CC[C@]2(C)[C@H]3CC[C@]4(C)C(=CC[C@@]5(C)CCC(C)(C)C[C@H]54)[C@]3(C)CC[C@H]2C1(C)C [3β-Taraxerol acetate, 3β-taraxerol acetate]",IC50,[2],116 µM
same,IC50,[3],94.7 µM
"C[C@@H]1[C@H](O)[C@@H](C)/C=C/C=C/C=C/C=C/C=C/C=C/C=C/[C@H](O[C@@H]2O[C@H](C)[C@@H](O)[C@H](N)[C@@H]2O)C[C@@H]2O[C@](O)(C[C@@H](O)C[C@@H](O)[C@H](O)CC[C@@H](O)C[C@@H](O)CC(=O)O[C@H]1C)C[C@H](O)[C@H]2C(=O)O [Amphotericin-B, reference compound]",MIC,"[4]; ATCC10231, crude extracts, Table 1, read-out: Minimum inhibitory concentration (MIC) C. albicans",20 µg/mL
same,MIC,[4]; [23],3.9 µg/mL
"CCCCCCCCCCCCOC(=O)/C=C/c1ccc(O)cc1 [Dodecyl-p-coumarate, dodecyl-p-coumarate]",MIC,"[5]; ATCC27853, read-out: Minimum inhibitory concentration (MIC) P. aeruginosa",> 250 µg/mL
same,Selectivity index P. aeruginosa,[5]; Table 2,< 0.8
same,MIC,"[6]; ATCC25922, read-out: Minimum inhibitory concentration (MIC) E. coli",> 250 µg/mL
same,Selectivity index E. coli,[6]; Table 2,< 0.8
same,MIC,"[7]; ATCC29212, read-out: Minimum inhibitory concentration (MIC) E. faecalis",62.5 µg/mL
same,Selectivity index E. faecalis,[7]; Table 2,> 3.2
same,MIC,"[8]; ATCC29213, read-out: Minimum inhibitory concentration (MIC) S. aureus",> 250 µg/mL
same,Selectivity index S. aureus,[8]; Table 2,< 0.8
same,MIC,"[9]; isolated compounds, Table 2",> 250 µg/mL
same,Selectivity index S. Typhimurium,[9]; Table 2,< 0.8
same,MIC,"[4]; ATCC10231, read-out: Minimum inhibitory concentration (MIC) C. albicans",250 µg/mL
same,Selectivity index C. albicans,[4]; Table 2,> 0.8
same,CC50 at 48 h,[10],> 200 µg/mL
same,Toxic effect on HEK295,[11],minimal toxic effect
same,EC50 Plasmodium falciparum,[12],81.19 ± 8.54 µg/mL
same,Reduction of viability of MCF-7 tumor cells,[13],at least 23%
same,Reduction of viability of Caco-2 tumor cells,[14],≥ 15%
same,Mycelium growth of Botrytis cinerea and Sclerotinia sclerotiorum,[15],inhibition of mycelium growth
same,EC50 Leishmania braziliensis amastigotes,[16],16.34 ± 0.49 µg/mL
"COc1cc(/C=C/C(=O)O)ccc1O [Ferulic acid, ferulic acid]",MIC,[5]; [24],> 250 µg/mL
same,Selectivity index P. aeruginosa,[5]; Table 2,< 0.8
same,MIC,[6]; [25],> 250 µg/mL
same,Selectivity index E. coli,[6]; Table 2,< 0.8
same,MIC,[7]; [26],> 250 µg/mL
same,Selectivity index E. faecalis,[7]; Table 2,< 0.8
same,MIC,[8]; [27],250 µg/mL
same,Selectivity index S. aureus,[8]; Table 2,> 0.8
same,MIC,"[9]; isolated compounds, Table 2",> 250 µg/mL
same,Selectivity index S. Typhimurium,[9]; Table 2,< 0.8
same,MIC,[4]; [23],250 µg/mL
same,Selectivity index C. albicans,[4]; Table 2,> 0.8
same,CC50 at 48 h,[10],> 200 µg/mL
same,MIC E. coli,[17],100 µg/mL
same,MIC L. monocytogenes,[18],1250 µg/mL
same,MIC S. aureus,[19],1100 µg/mL
same,MIC,"[20]; all tested strains, read-out: MIC against all tested microorganisms",≥ 250 µg/mL
same,MIC against all tested microorganisms,[20],no efficacy
same,MIC P. aeruginosa,[21],100 µg/mL
"CNC(C)C1CCC(N)C(OC2C(N)CC(N)C(OC3OCC(C)(O)C(NC)C3O)C2O)O1 (stereo not shown) [Gentamicin, reference compound]",MIC,"[5]; ATCC27853, crude extracts, Table 1, read-out: Minimum inhibitory concentration (MIC) P. aeruginosa",20 µg/mL
same,MIC,[5]; [24],3.9 µg/mL
same,MIC,"[6]; ATCC25922, crude extracts, Table 1, read-out: Minimum inhibitory concentration (MIC) E. coli",20 µg/mL
same,MIC,[6]; [25],3.9 µg/mL
same,MIC,"[7]; ATCC29212, crude extracts, Table 1, read-out: Minimum inhibitory concentration (MIC) E. faecalis",20 µg/mL
same,MIC,[7]; [26],3.9 µg/mL
same,MIC,"[8]; ATCC29213, crude extracts, Table 1, read-out: Minimum inhibitory concentration (MIC) S. aureus",20 µg/mL
same,MIC,[8]; [27],3.9 µg/mL
same,MIC,"[9]; crude extracts, Table 1",20 µg/mL
same,MIC,"[9]; isolated compounds, Table 2",3.9 µg/mL
C=C1C(=O)O[C@H]2[C@H]1[C@@H](OC(C)=O)C[C@@](C)(O)[C@@]13O[C@@H]1[C@@H]1O[C@]1(C)[C@H]23 [Yomogiartemin],IC50,[1],~10 µM
"O=C1O[C@H]([C@@H](O)CO)C(O)=C1O [vitamin C, reference compound]",IC50 DPPH radical,[22],1.22 µg/mL
